Measurements reported in patent publication US12427134B2, “Methods of reducing the risk of cardiovascular events in a subject with atrial fibrillation and/or atrial flutter” (priority 2019, dated 2025).
Several values for one entry are separate records, joined by “and”; a condition that tells them apart may be missing. Equal entries are not always repeated.

Test system: hypertriglyceridemic patients with cardiovascular disease or at high risk for cardiovascular disease
Assay: REDUCE-IT: time to first occurrence of adjudicated cardiovascular endpoint events (primary, key secondary, other secondary, tertiary; sensitivity and landmark analyses)
Assay type: in vivo
Conditions: for New Onset Hypertension, patients with event: non-adjudicated
Source text: The following study, also referred to as the REDUCE-IT clinical trial, was a large cardiovascular (CV) outcome trial designed to assess CV risk reduction benefit of AMR101 treatment (commercially known as VASCEPA®) versus placebo on the 5-point primary composite endpoint: CV death, non-fatal stroke, non-fatal myocardial infarction (MI), coronary revascularizations, or unstable angina requiring hospitalization.
A multi-center, prospective, randomized, double-blind, placebo-controlled, parallel-group study was performed to evaluate the effect of AMR101 (4 g per day) on cardiovascular health and mortality in hypertriglyceridemic patients with cardiovascular disease or at high risk for cardiovascular disease. The intended expanded indication of the study was treatment with AMR101 as an add-on to statin therapy to reduce the risk of cardiovascular events in patients with clinical cardiovascular disease or with multiple risk factors for cardiovascular disease.
The primary objective of this study was, in patients at LDL-C goal while on statin therapy, with established cardiovascular disease (CVD) or at high risk for CVD, and hypertriglyceridemia (e.g., fasting triglycerides (TG) ≥200 mg/dL and <500 mg/dL), to evaluate the effect of AMR101 4 g daily on time from randomization to first occurrence of any component of the composite of the following major CV events: CV death; nonfatal MI; (including silent MI; electrocardiograms (ECGs) were performed annually for the detection of silent MIs); nonfatal stroke; coronary revascularization; and unstable angina determined to be caused by myocardial ischemia by invasive/non-invasive testing and requiring emergent hospitalization.
The key secondary objective of this study was to evaluate the effect of AMR101 4 g daily on the time from randomization to the first occurrence of the composite of following major CV events: CV death, nonfatal MI (including silent MI), and nonfatal stroke.
Other secondary objectives for this study were to evaluate the effect of therapy on time from randomization to the first occurrence of the following individual or composite endpoints: composite of CV death or nonfatal MI (including silent MI); fatal or nonfatal MI (including silent MI); non-elective coronary revascularization represented as the composite of emergent or urgent classifications; CV death; unstable angina determined to be caused by myocardial ischemia by invasive/non-invasive testing and requiring emergent hospitalization; fatal or nonfatal stroke; composite of total mortality, nonfatal MI (including silent MI), or nonfatal stroke; and total mortality.
The key tertiary objectives for this study were to evaluate the effect of AMR101 4 g daily from baseline and percent change from baseline in fasting triglycerides and LDL-C. […]

[1] = ITT population, 4 g daily, N = 4089
[2] = ITT population, listed as Icosapent Ethyl

## CC/C=C\C/C=C\C/C=C\C/C=C\C/C=C\CCCC(=O)OCC [AMR101, eicosapentaenoic acid ethyl ester]
2-year landmark, ITT population
  Key secondary endpoint, HR: 0.831
4 g per day
  Fatal or nonfatal MI, relative risk reduction: 31%
  Fatal or nonfatal stroke, relative risk reduction: 28%
  Hospitalization for unstable angina, relative risk reduction: 32%
  Total mortality, nonfatal MI, or nonfatal stroke, relative risk reduction: 23%
  Total mortality, relative risk reduction: 13%
  Urgent or emergent revascularization, relative risk reduction: 35%
CEC-adjudicated
  Non-CV deaths, patients: 2.4%
CEC-adjudicated deaths
  Total mortality, patients: 6.7%
ITT population
  Component contributing to key secondary endpoint (first event): CV Death: 149 (3.6) n (%)
  Component contributing to key secondary endpoint (first event): Nonfatal MI: 230 (5.6) n (%)
  Component contributing to key secondary endpoint (first event): Nonfatal Stroke: 80 (2.0) n (%)
  Component contributing to primary endpoint (first event): CV Death: 137 (3.4) n (%)
  Component contributing to primary endpoint (first event): Coronary Revascularization: 189 (4.6) n (%)
  Component contributing to primary endpoint (first event): Hospitalization for Unstable Angina: 94 (2.3) n (%)
  Component contributing to primary endpoint (first event): Nonfatal MI: 205 (5.0) n (%)
  Component contributing to primary endpoint (first event): Nonfatal Stroke: 80 (2.0) n (%)
  Composite: CV Death, Nonfatal MI, Non-Elective Coronary Revascularization, Unstable Angina, Nonfatal Stroke, or PVD Requiring Intervention: 683 (16.7) n (%)
  Composite: CV Death, Nonfatal MI, Non-Elective Coronary Revascularization, Unstable Angina, Nonfatal Stroke, or PVD Requiring Intervention, HR (95% CI): 0.77 (0.70-0.86)
  Composite: CV Death, Nonfatal MI, Non-Elective Coronary Revascularization, Unstable Angina, PVD Requiring Intervention, or Cardiac Arrhythmia: 741 (18.1) n (%)
  Composite: CV Death, Nonfatal MI, Non-Elective Coronary Revascularization, Unstable Angina, PVD Requiring Intervention, or Cardiac Arrhythmia, HR (95% CI): 0.86 (0.78-0.94)
  Composite: CV Death, Nonfatal MI, Non-Elective Coronary Revascularization, or Unstable Angina: 513 (12.5) n (%)
  Composite: CV Death, Nonfatal MI, Non-Elective Coronary Revascularization, or Unstable Angina, HR (95% CI): 0.76 (0.68-0.85)
  Composite: CV Death, Nonfatal MI, Nonfatal Stroke, Cardiac Arrhythmia, or Cardiac Arrest: 589 (14.4) n (%)
  Composite: CV Death, Nonfatal MI, Nonfatal Stroke, Cardiac Arrhythmia, or Cardiac Arrest, HR (95% CI): 0.82 (0.73-0.91)
  Coronary Revascularization (all), HR (95% CI): 0.66
  Coronary Revascularization (all), patients with event: 9.2%
  Fatal or nonfatal MI (including silent MI), patients with event: 6.1%
  Fatal or nonfatal MI, HR: 0.688
  Fatal or nonfatal stroke, HR: 0.720
  Fatal or nonfatal stroke, patients with event: 2.4%
  Hospitalization for unstable angina, HR: 0.679
  Hospitalization for unstable angina, patients with event: 2.6%
  Key secondary endpoint in patients with impaired glucose metabolism at baseline, HR: 0.829
  Key secondary endpoint in patients with impaired glucose metabolism at baseline, patients with event: 11.3%
  New Heart Failure (newly emergent CHF), HR (95% CI): 0.95
  New Heart Failure (newly emergent CHF), patients with event: 4.1%
  New Onset Hypertension, HR (95% CI): 0.86
  Non-elective (emergent or urgent) coronary revascularization, HR: 0.653
  Peripheral Artery Disease, HR (95% CI): 0.97
  Peripheral Artery Disease, patients with event: 3.8%
  Primary endpoint in patients with diabetes at baseline, HR (95% CI): 0.769 (0.677-0.873)
  Primary endpoint in patients with diabetes at baseline, patients with event: (18.1%)
  Primary endpoint in patients with impaired glucose metabolism at baseline, HR (95% CI): 0.795 (0.675-0.937)
  Primary endpoint in patients with metabolic syndrome at baseline, HR (95% CI): 0.744 (0.671-0.824)
  Silent MI, patients with event: 0.7%
  Sudden Cardiac Death, HR (95% CI): 0.69
  Total Mortality or Newly Emergent CHF: 393 (9.6) n (%)
  Total Mortality or Newly Emergent CHF, HR (95% CI): 0.90 (0.78-1.03)
  Total mortality, HR: 0.87
  Total mortality, nonfatal MI, or nonfatal stroke, HR: 0.772
  New Onset Hypertension, patients with event: 0.3%
[1]
  Key secondary composite endpoint (CV death, nonfatal MI, nonfatal stroke), patients with event: 459 (11.2%) n (%) and 459 (11.2) n (%)
  Primary composite endpoint (CV death, nonfatal MI, nonfatal stroke, coronary revascularization, hospitalization for unstable angina), patients with event: 705 (17.2%) n (%) and 705 (17.2) n (%)
[2]
  New Onset Hypertension, patients with event: (0.3) %
  Amputation for PVD, patients with event: (0.5%)
  Cardiac Arrest, HR (95% CI): 0.52 (0.31, 0.86)
  Cardiac Arrest, patients with event: (0.5%)
  Coronary Revascularization (all), HR (95% CI): 0.66 (0.58, 0.76)
  Coronary Revascularization (all), patients with event: (9.2%)
  Elective Revascularization, HR (95% CI): 0.68 (0.57, 0.82)
  Elective Revascularization, patients with event: (4.7%)
  Emergent Revascularization, HR (95% CI): 0.62 (0.42, 0.92)
  Emergent Revascularization, patients with event: (1.0%)
  Ischemic Stroke, HR (95% CI): 0.64 (0.49, 0.85)
  Ischemic Stroke, patients with event: (2.0%)
